From PubChem BioAssay (NCI) come the findings set out here.

The structures appear in SMILES notation.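 Cells were grown in 96-well plates and exposed to each compound for 48 hours at five concentrations; endpoints were interpolated linearly between bracketing concentrations, or set to the highest concentration if not reached. At the TGI there is no net growth.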

Assay in all cases: inhibition of tumour cell growth, NCI panel, 48 h
Experiment [1] concerns MOLT-4 leukemia.
Experiment [2] relates to NCI-H23 lung.
Experiment [3] deals with SW-620 colon.
The subject of experiment [4] is SF-539 CNS.
In experiment [5] the test system is LOX IMVI melanoma.
Experiment [6] relates to MDA-MB-231 breast.
Experiment [7] deals with HS 578T breast.
In experiment [8] the test system is SN12C renal.
For experiment [9], the system named is PC-3 prostate.
In experiment [10] the test system is SR leukemia.

Take `O=C(CNc1ccccc1[N+](=O)[O-])Nn1c(-c2ccccc2)nc2ccccc2c1=O`: the TGI amounted to 49.8 µM in experiment [1]; 76.5 µM in experiment [2]; 42.2 µM in [3]; 44.5 µM in [4]; 24.7 µM in experiment [5]; 29.1 µM in experiment [6]. Also, the TGI in experiment [7] is more than 100 µM; in [8], 63.1 µM; in [9], 61.5 µM; in [10], 71.7 µM.

Consider `CCN(CC)CCNC(=O)c1cn2c(ccc3sc4ccccc4c(=O)c32)n1`, for which the TGI in experiment [1] is 11.9 µM; in experiment [2], 28.4 µM; in [3], 20.3 µM; in experiment [4] it was 24.9 µM; in experiment [5] it was more than 48.9 µM; in [6] it was 27.5 µM. The TGI in experiment [7] was 34.6 µM; in experiment [8], 23.7 µM; in [9] it was 23.4 µM; in [10], 26.6 µM.

Take `O=C(Cc1ccccc1)Nn1c(-c2ccccc2)nc2ccccc2c1=O`: the TGI in [1], in experiment [2], in [3], in experiment [4], in [5] and in [6] was more than 100 µM throughout. Moreover, the TGI in experiment [7], in experiment [8], in [9] and in [10] was more than 100 µM in each case.

In the case of `Cc1noc(NC2=CC(=O)C(=O)c3ccccc32)c1C`, the TGI in experiment [1] was 47.4 µM; in experiment [2], 35.5 µM; in [4], 14.1 µM; in experiment [5], more than 100 µM; in experiment [6], more than 100 µM; in experiment [7], more than 100 µM. Also, the values for the TGI in experiment [8], in experiment [9] and in [10] were 3.7 µM, more than 100 µM and more than 100 µM, respectively.

On to `Cc1ccc2oc(=O)c(C(=O)Nc3nc(C45CC6CC(CC(C6)C4)C5)cs3)cc2c1`, for which the TGI in [1], in experiment [2], in [3], in experiment [4], in experiment [5] and in experiment [6] was more than 100 µM in each case. The TGI in experiment [7], in [8], in [9] and in [10] was more than 100 µM in each case.

As for `COC(=O)[C@H](Cc1c[nH]c2ccccc12)NC(=O)c1ccc(CNC(=O)/C=C/c2cccc(Oc3ccccc3)c2)cc1`, the TGI in experiment [1], in experiment [2], in experiment [3], in experiment [6], in experiment [7] and in experiment [8] was more than 100 µM each time. Further, the TGI in experiment [9] and in experiment [10] was more than 100 µM throughout.

With `CCCCCCCCCCCCCCCC(=O)N(CCCCCCCCCCC(=O)O)CC(O)C(O)C(OC1OC(CO)C(O)C(O)C1O)C(O)CO` (centres undefined), the TGI was 46.4 µM in experiment [1]; more than 100 µM in [2]; 52.5 µM in [3]; 54.9 µM in experiment [4]; 35.1 µM in experiment [5]; more than 100 µM in experiment [6]. Moreover, the TGI was more than 100 µM in experiment [7], 40.1 µM in experiment [8], more than 100 µM in [9] and 49.9 µM in [10].

Consider `CC(C)C(/C=C/c1ccc(Cl)c(Cl)c1)=N\NC(=O)N/N=C(/C=C/c1ccc(Cl)c(Cl)c1)C(C)C`, for which the TGI in experiment [1], in [2], in experiment [3], in experiment [4], in experiment [5] and in [6] was more than 100 µM each time. Besides, the TGI in [7], in experiment [8], in [9] and in experiment [10] was more than 100 µM each time.

With `CCOC(=O)C(NC(=O)c1ccccc1)(N1CCOCC1)C(F)(F)F` (centres undefined), the TGI in [1], in experiment [2], in experiment [3], in experiment [4], in experiment [5] and in experiment [6] was more than 100 µM throughout. The TGI in [7], in experiment [8], in experiment [9] and in experiment [10] was more than 100 µM each time.

For the compound `CCNC(=O)c1c(O)c2ccccc2[nH]c1=O`, the TGI in [1], in experiment [2], in experiment [3], in [4], in [5] and in experiment [6] was more than 100 µM throughout. Moreover, the TGI in [7], in [8], in experiment [9] and in experiment [10] was more than 100 µM each time.

In the case of `CCOP(=O)(OCC)C(C#N)Cc1ccco1` (centres undefined), the TGI in experiment [1], in experiment [2], in experiment [3], in experiment [4], in experiment [5] and in experiment [6] was more than 10 µM throughout. The TGI in experiment [7], in [8], in experiment [9] and in experiment [10] was more than 10 µM each time.

In the case of `CCCCCCCCCCCCCCCCOC[C@@H](COC(c1ccccc1)(c1ccccc1)c1ccccc1)O[P+](=S)OC` (some centres undefined), the TGI in experiment [1] stood at 53.1 µM; in experiment [2], 23.7 µM; in experiment [3], 37 µM; in experiment [4], 9.45 µM; in experiment [5] it was 11.3 µM; in [6] it was 5.49 µM. Moreover, the TGI in [7] turned out to be 82.6 µM; in [8], 21.8 µM; in experiment [9], 18.9 µM; in experiment [10], 5.46 µM.

Regarding `CC(=O)N=C1N(/C=C2\C(=O)Oc3ccccc3C2=O)C(=O)/C(=C/c2ccc(Cl)cc2Cl)N1C`, the TGI in experiment [1], in experiment [2], in [3], in experiment [4], in experiment [5] and in experiment [6] was more than 100 µM each time. Further, the TGI in experiment [7] was 5.03 µM; in experiment [8], more than 100 µM; in experiment [9], more than 100 µM; in experiment [10] it was 94.2 µM.

Consider `CC1=C(C(=O)c2ccccc2)C23C(=O)N(c4ccccc4)C(=O)C2=C(O)C=CC3(O)N1` (centres undefined), for which the TGI was more than 100 µM in [2]; 72.7 µM in experiment [3]; more than 100 µM in [4]; 61.1 µM in [5]; more than 100 µM in [6]; more than 100 µM in experiment [7]. In addition, the TGI in experiment [8] is more than 100 µM; in experiment [9], more than 100 µM; in experiment [10], 46.3 µM.

Turning to `COc1ccc(N2C=Nn3c(nc4sc5c(c4c3=O)CCCC5)C2)cc1`, the TGI in [1] is more than 100 µM; in [2], more than 100 µM; in [3] it was more than 100 µM; in experiment [5], more than 100 µM; in [6] it was 40 µM; in experiment [7], 9.6 µM. For the same compound, the TGI in experiment [8], in experiment [9] and in experiment [10] was more than 100 µM each time.

`NC1=CN2c3ccccc3N(CC(=O)O)C2C=C1` (centres undefined): the TGI in experiment [1], in experiment [2], in experiment [3], in [4], in [5] and in experiment [6] was more than 100 µM throughout. Further, the TGI in experiment [7], in experiment [9] and in [10] was more than 100 µM throughout.

On to `O=C(O)Cc1ccc2[nH]c(O)c(C3=Nc4ccccc4C3=O)c2c1`, for which the TGI in experiment [1] is more than 100 µM; in experiment [2], more than 100 µM; in experiment [3], more than 100 µM; in [5], more than 100 µM; in experiment [6] it was more than 100 µM; in experiment [7] it was 77.5 µM. The TGI in [8] is more than 100 µM; in experiment [9], more than 100 µM; in experiment [10] it was 93 µM.

Turning to `FC1C2=C(SC1(F)F)C1CCC2C1` (centres undefined), the TGI in experiment [1], in [2], in experiment [3], in experiment [5], in [6] and in experiment [7] was more than 100 µM in each case. Besides, the TGI in experiment [9] and in experiment [10] was more than 100 µM each time.

Regarding `COc1cc2c(=O)cnoc2cc1O`, the TGI in experiment [1], in [2], in [3], in experiment [4], in [6] and in experiment [7] was more than 100 µM throughout. Further, the TGI in [8], in [9] and in experiment [10] was more than 100 µM throughout.

In the case of `CC(=O)OC[C@@H](OC(C)=O)[C@H](OC(C)=O)[C@@H]1OC(C)(C)O[C@@H]1C1SCCCS1`, the TGI in experiment [1], in experiment [2], in experiment [3], in [4], in experiment [5] and in experiment [6] was more than 100 µM throughout. Besides, the TGI in experiment [7], in experiment [9] and in experiment [10] was more than 100 µM throughout.

Take `O=c1[nH]nc(Cc2ccccc2)n1CCO`: the TGI in [1], in [2], in experiment [3], in [4], in experiment [5] and in [6] was more than 100 µM each time. Also, the TGI in [7], in experiment [8] and in experiment [9] was more than 100 µM each time.

For the compound `CCCCON1C[C@H](OC(C)=O)C(OC(C)=O)[C@H](OC(C)=O)C1` (some centres undefined), the TGI in [1], in [2], in experiment [4], in [5], in [6] and in experiment [7] was more than 100 µM throughout. Also, the TGI in [8], in [9] and in [10] was more than 100 µM throughout.

Consider `O=C1c2cc(Cl)ccc2NC(=NCCCl)C2CSCN12` (centres undefined), for which the TGI in experiment [1], in experiment [3], in experiment [5], in [6], in experiment [7] and in experiment [8] was more than 100 µM each time. Further, the TGI in [9] and in experiment [10] was more than 100 µM in each case.

Turning to `Oc1ccc(Cl)cc1CN1CCN(Cc2cc(Cl)ccc2O)C1`, the TGI is 12 µM in experiment [1]; 5.53 µM in experiment [2]; 10.5 µM in experiment [3]; 2.81 µM in experiment [4]; 4.07 µM in [5]; 10.2 µM in experiment [6]. The TGI in [7] amounted to 8.99 µM; in [8] it was 5.19 µM; in experiment [9], 6.69 µM.

`Cc1cn([C@@H]2O[C@H](CO[Si](C)(C)C(C)(C)C)[C@]3(O[C@H]3C(=O)NN)[C@H]2O[Si](C)(C)C(C)(C)C)c(=O)[nH]c1=O`: the TGI is 6.02 µM in experiment [1]; 30 µM in experiment [2]; 20 µM in [3]; 16.3 µM in experiment [4]; 10.7 µM in [5]; 13.7 µM in [6]. Further, the TGI in experiment [7] is 6.93 µM; in [8], 13.9 µM; in [9], 11.4 µM.

Turning to `O=[N+]([O-])c1cc2c(cc1/C=N/n1c(CO)nc3ccccc31)OCO2`, the TGI in experiment [1], in [2], in [3], in [4], in experiment [5] and in [6] was more than 100 µM in each case. The TGI in experiment [7], in [8] and in experiment [9] was more than 100 µM each time.

Regarding `CC1=Nc2sc3c(c2C2=NCCN12)CCCC3`, the TGI is 60.5 µM in experiment [1]; 46.3 µM in experiment [2]; 52.9 µM in [3]; 36.8 µM in [5]; 71.2 µM in experiment [6]; 91.1 µM in experiment [7]. In addition, the TGI is 69.6 µM in experiment [8], 65.9 µM in experiment [9] and 65.2 µM in experiment [10].

Take `COc1ccc(N2C(=O)C3c4[nH]c5ccc(F)cc5c4C4CCC(c5ccccc5)CC4C3C2=O)cc1` (centres undefined): the TGI in experiment [2] is 44.5 µM; in experiment [3], 59.9 µM; in experiment [5], more than 100 µM; in experiment [6], 44 µM; in [7], 31.8 µM; in experiment [8], more than 100 µM. The TGI was 35.2 µM in experiment [9] and 36.1 µM in experiment [10].
